Measurements: patent US20230242526A1 (Zentaur Therapeutics International Limited, priority 2020, published 2023)

Experiments:
[1] = tested on: HCC1806 s.c. xenografts; test: HCC1806 s.c. breast cancer xenograft efficacy (tumor volume, relative tumor volume, tumor weight, TGI); type: in vivo, BALB/c nude mice; conditions: 30 mg/kg P.O. BID; for Tumor Growth Inhibition D3 / Tumor Growth Inhibition D7 / Tumor Growth Inhibition D10 / Tumor Growth Inhibition D14 / Tumor Growth Inhibition D17 / Tumor Growth Inhibition D21: vs control vehicle; for Tumor Growth Inhibition D3 / Tumor volume D3: day 3; for Tumor Growth Inhibition D7 / Tumor volume D7: day 7; for Tumor Growth Inhibition D10 / Tumor volume D10: day 10; for Tumor Growth Inhibition D14 / Tumor volume D14: day 14; for Tumor Growth Inhibition D17 / Tumor volume D17: day 17; for Tumor Growth Inhibition D21 / Tumor volume D21: day 21; for Tumor volume D0 / Tumor volume D3 / Tumor volume D7 / Tumor volume D10 / Tumor volume D14 / Tumor volume D17 / Tumor volume D21 / Tumor weight: group mean; for Tumor volume D0: day 0; for Tumor weight: end of the study (Day 21)
Description: The in vivo potency of anti-tumor activities of Comp. 4, Comp. 37, Comp. 5, Comp. 28, Comp. 163, and Comp. 164 have been evaluated on the growth of HCC1806 s.c. xenografts in BALB/c nude mice.
The testing compounds Comp. 4, Comp. 37, Comp. 5, Comp. 28, Comp. 163, and Comp. 164 were prepared according the synthetic routes set forth in the above Examples. The testing formulations for compounds Comp. 4, Comp. 37, Comp. 5, Comp. 28, Comp. 163, and Comp. 164 were prepared as liquid formulation in a liquid vehicle containing 0.1% Tween-80 (purchased form Sinopharm Chemical Reagent Co., Ltd, Lot No. 20190322), 0.5% methyl cellulose (purchased from SIGMA, Lot No. SLBR8963V) in water.
A total of 42+8 female BALB/c nude mice were ordered from Shanghai LC Laboratory Animal Co. Ltd. The animals were specific pathogen free and approximately 4-5 weeks old upon arrival at PharmaLegacy Laboratories.
HCC1806 cell cultures were maintained at 37° C. under 5% CO2 in RPMI-1640 medium supplemented with 10% FBS and were subsequently cultured within 10 passages before inoculated into the mice.
(§1) When the average tumor volume reached 80-120 mm^3, 42 tumor-bearing mice were randomized into 7 groups (6 mice per group) according to tumor volume. The grouping day was defined as Day 0. Treatment was applied immediately after grouping animals on the same day.
(§2) The body weight of the testing animals were measured twice a week after grouping. Tumor volumes by the length and width of the tumor were measured by electric calipers and the tumor volume (V) was calculated as follows: V=(length×width^2)/2. The individual relative tumor volume (RTV) was calculated as follows: RTV=Vt/V0, where Vt was the volume on each day, and V0 was the volume at the beginning of the treatment.
Tumors were collected at the end of the study (Day 21), the mice were sacrificed. Tumor was collected, weighed, photographed.
(§3) Results were expressed as mean±S.E.M. Comparisons between two groups were made by corresponding test, p<0.05 were considered to be significant.

[2] = tested on: human ovarian carcinoma OVCAR3 cell line; test: CyQUANT Direct cell proliferation assay, OVCAR-3; type: cell-based; conditions: OVCAR-3, 168 h, 7 days
Description: The human ovarian carcinoma OVCAR3 cell line (ATCC HTB-161™) or human breast squamous HCC1806 cell line (ATCC CRL 2335) were obtained from American Type Culture Collection (ATCC), and maintained in culture media according to the supplier's specification.
The CyQUANT® Direct Cell Proliferation Assay Kit (Invitrogen™, catalog No. G35012) was utilized to test the inhibitory activities of the CDK2 inhibitors described in this disclosure against OVCAR3 or HCC1806 tumor cells.
CyQUANT® Direct Cell Proliferation Assay: The spent medium from the purchased tumor cell culture plate was removed and the tumor cells were washed with PBS buffer twice. Trypsin (VWR catalog No. 0458-25G) was added to digest the tumor cells until tumor cells appeared round shaped and to dissociate adherent cells from the plate wall in which they are being cultured. Then RPMI-1640 media (HCC1806, Gibco™ catalog No, A10491-01) with 10% fetal bovine serum (FBS) (Hyclone™ catalog No. SV30160.03), or RPMI-1640 media (OVCAR-3, Gibco™ catalog No. 10370-021) with 20% FBS and 0.01 mg/mL insulin was added to stop the trypsin digestion reaction. The tumor cells were lightly agitated with a liquid transfer pipette to cause tumor cells suspended in the culture media. The cells were counted. The complete medium was used to prepare tumor cell suspension.
OVCAR3 or HCC1806 cells were seeded at 40 μL/well in 384-well plates in growth media containing FBS and cultured 24 hours in the incubator at 37° C., 5% CO2. […] Compound solutions were added by Agilent Bravo liquid handler. […] The control wells contained the growth medium having 0.1% DMSO. Cells were incubated at 37° C., 5% CO2 for 7 days.
CYQUANT Direct Cell Proliferation Assay (Molecular Probes, Eugene, Oreg.) was then performed following manufacturer's instructions to prepare the detection reagents. 50 μL of detection reagent was aliquot and added to each well and the cells were incubated at 37° C. for 1 hr.
The cell culture plates were placed on TECAN M1000 microplate reader to detect the fluorescence intensity at 508 nm excitation and 527 nm emission wavelengths. Graphpad Prism 6.0 software was used for data processing, preparing cell growth curve, calculating percentage inhibition on cell growth. IC50 values were calculated by concentration-response curve fitting utilizing a four-parameter analytical method using GraphPad Prism software.

[3] = Body weight in the HCC1806 xenograft study; type: in vivo, BALB/c nude mice; conditions: 30 mg/kg P.O. BID; for Body weight D0 / Body weight D3 / Body weight D7 / Body weight D10 / Body weight D14 / Body weight D17 / Body weight D21: group mean; for Body weight D0: day 0; for Body weight D3: day 3; for Body weight D7: day 7; for Body weight D10: day 10; for Body weight D14: day 14; for Body weight D17: day 17; for Body weight D21: day 21
Description: as §1, §2, §3

[4] = in vitro; conditions: mouse, microsomes, pH 7.4, t1/2 mouse
Description: Human liver microsomes (cat. No. 452161), mouse liver microsomes (cat. No. 452701), were purchased from Corning.
Samples were analyzed using LC-MS/MS using a SCIEX API 4000 mass spectrometer coupled with Agilent HPLC analytical system. After separation on a ZORBAX XDB-C18 column (5 μm, 50×2.1 mm, column No. 50-282) using an acetonitrile-water gradient system, peaks were analyzed by mass spectroscopy (MS) using ESI ionization in Q1 and Q3 scan mode.
The LC and MS are all controlled by Analyst software.
The liver microsomes were incubated with 1.0 μM of the testing compound at 37° C. The incubation mixture contained 100 mM PBS buffer (pH=7.4), 3 mM MgCl2 and 1 mM NADPH. The concentration of liver microsome in the incubation mixture was 0.5 mg/mL for testing compound, and 0.2 mg/mL for MDZ and the total volume is 0.2 mL. […] Aliquots were withdrawn at time points of 0 min, 5 min and 20 min for MDZ. The reactions were terminated by transferring the aliquots to a methanol solution containing the internal standard […] for analytical quantification. The quenched samples were analyzed by LC-MS/MS. The incubations were carried out in duplicates. The metabolic stability of the testing compounds by the liver microsomes of human and mice is expressed as elimination half-life (t1/2). The results are shown as the means of duplicate determinations±SD.

SMILES | Tumor Growth Inhibition D3 [1] [%] | Tumor Growth Inhibition D7 [1] [%] | Tumor Growth Inhibition D10 [1] [%] | Tumor Growth Inhibition D14 [1] [%] | Tumor Growth Inhibition D17 [1] [%] | Tumor Growth Inhibition D21 [1] [%] | Tumor volume D0 [1] [mm^3] | Tumor volume D3 [1] [mm^3] | Tumor volume D7 [1] [mm^3] | Tumor volume D10 [1] [mm^3] | Tumor volume D14 [1] [mm^3] | Tumor volume D17 [1] [mm^3] | Tumor volume D21 [1] [mm^3] | Tumor weight [1] [g] | Body weight D0 [3] [g] | Body weight D3 [3] [g] | Body weight D7 [3] [g] | Body weight D10 [3] [g] | Body weight D14 [3] [g] | Body weight D17 [3] [g] | also measured
C[C@@]1(O)CCC[C@H]1n1c(=O)c(C(F)F)cc2cnc(NC3CCN(S(C)(=O)=O)CC3)nc21 [Comp. 5, (−)-6-(difluoromethyl)-8-((1R,2R)-2-hydroxy-2-methylcyclopentyl)-2-((1-(methylsulfonyl)piperidin-4-yl)amino)pyrido[2,3-d]pyrimidin-7(8H)-one, reference compound] | 37.46 | 42.30 | 39.66 | 42.80 | 43.13 | 44.1 | 109.77 | 225.24 | 405.37 | 654.51 | 880.11 | 1139.14 | 1327.79 | 2.22 | 18.43 | 18.07 | 18.12 | 17.82 | 18.25 | 18.48 | tumor volume compared with G1 vehicle on each day [1]: significant smaller tumor volume from day 7 to day 21; tumor weight at the end of the study, in words [1]: lighter tumor but no statistic significance; IC50 [2]: 40.3 nM; Body weight D21 [3]: 17.80 g; half-life at 1 μM [4]: 22 min
Cc1cc2cnc(NC3CCN(S(C)(=O)=O)CC3)nc2n([C@@H]2CCC[C@@]2(C)O)c1=O [Comp. 4, (−)-8-(2-hydroxy-2-methylcyclopentyl)-6-methyl-2-((1-(methylsulfonyl)piperidin-4-yl)amino)pyrido[2,3-d]pyrimidin-7(8H)-one, reference compound] | 30.25 | 23.11 | −1.66 | 6.35 | 9.13 | 6.55 | 112.95 | 241.73 | 506.86 | 1030.80 | 1374.19 | 1757.63 | 2149.25 | 3.63 | 18.11 | 17.90 | 18.56 | 19.59 | 19.85 | 20.49 | body weight compared with G1 vehicle [3]: significant higher on day 21; Body weight D21 [3]: 20.80 g; half-life at 1 μM [4]: 16.5 min
[2H]C(F)(F)c1cc2cnc(NC3CCN(S(C)(=O)=O)CC3)nc2n([C@@H]2CCC[C@@]2(C)O)c1=O [Comp. 28, (−)-6-(difluoromethyl-d)-8-((1R,2R)-2-hydroxy-2-methylcyclopentyl)-2-((1-(methylsulfonyl)piperidin-4-yl)amino)pyrido[2,3-d]pyrimidin-7(8H)-one] | 15.44 | 11.52 | 15.19 | 12.60 | 26.69 | 34.01 | 111.13 | 267.25 | 564.40 | 876.82 | 1288.11 | 1438.12 | 1549.07 | 2.84 | 17.93 | 17.81 | 17.78 | 17.66 | 17.75 | 17.84 | IC50 [2]: 32.5 nM; body weight compared with G1 vehicle [3]: significant lower on day 17; Body weight D21 [3]: 16.80 g; half-life at 1 μM [4]: 182 min
[2H]C([2H])([2H])c1cc2cnc(NC3CCN(S(C)(=O)=O)CC3)nc2n([C@@H]2CCC[C@@]2(C)O)c1=O [Comp. 37, (−)-8-((1R,2R)-2-hydroxy-2-methylcyclopentyl)-6-(methyl-d3)-2-((1-(methylsulfonyl)piperidin-4-yl)amino)pyrido[2,3-d]pyrimidin-7(8H)-one] | 42.52 | 49.20 | 46.10 | 44.43 | 48.73 | 46.8 | 109.89 | 216.01 | 370.15 | 596.52 | 858.29 | 1037.86 | 1269.08 | 2.10 | 18.25 | 18.23 | 18.10 | 18.01 | 18.80 | 18.60 | tumor volume compared with G1 vehicle on each day [1]: significant smaller tumor volume from day 3 to day 21; tumor weight at the end of the study, in words [1]: lighter tumor but no statistic significance; Body weight D21 [3]: 18.17 g; half-life at 1 μM [4]: 72 min
